Experimental data taken from paper PMC3601784 (Chromatographia, 2012).

What was measured:
[1] = Solubility of PHOME in assay buffer; format: physicochemical; conditions: BIS–TRIS buffer with 0.1 g/L Tween 80, in the superloop
[2] = target: T1, Human recombinant sEH (Homo sapiens, UniProt P34913); test: LC-BCD/MS; format: biochemical; conditions: mixture of sEHi 6, sEHi 1, sEHi 7, diclofenac and phenylbutazone separated by LC
T1 sequence (P34913 1-555): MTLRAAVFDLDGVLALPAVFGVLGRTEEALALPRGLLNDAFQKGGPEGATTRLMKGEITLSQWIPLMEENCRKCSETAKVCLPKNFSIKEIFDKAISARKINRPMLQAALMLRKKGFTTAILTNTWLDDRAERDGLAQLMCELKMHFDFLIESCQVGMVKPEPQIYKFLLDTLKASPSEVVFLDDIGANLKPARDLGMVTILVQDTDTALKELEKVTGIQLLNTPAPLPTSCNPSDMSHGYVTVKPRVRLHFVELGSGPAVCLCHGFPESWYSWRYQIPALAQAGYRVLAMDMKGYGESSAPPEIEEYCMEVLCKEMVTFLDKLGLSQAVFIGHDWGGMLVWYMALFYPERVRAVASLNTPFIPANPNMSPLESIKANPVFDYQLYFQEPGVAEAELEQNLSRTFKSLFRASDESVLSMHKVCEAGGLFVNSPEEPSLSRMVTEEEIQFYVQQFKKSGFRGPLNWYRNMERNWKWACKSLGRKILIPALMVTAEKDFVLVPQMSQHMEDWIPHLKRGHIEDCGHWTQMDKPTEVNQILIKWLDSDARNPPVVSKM

limit of solubility [1]	sEH activity (BCD peak) in a standard mixture [2]	Compound
~30 µM	–	COc1ccc2cc(C(C#N)OC(=O)CC3OC3c3ccccc3)ccc2c1 (centres unmarked) [PHOME, (3-phenyl-oxiranyl)-acetic acid cyano-(6-methoxy-naphthalen-2-yl)-methyl ester]
–	without sEH activity	CCCCC1C(=O)N(c2ccccc2)N(c2ccccc2)C1=O [phenylbutazone]
